Structures are written as SMILES.

Here are results for 19 molecules from ChEMBL document CHEMBL4052601, “Glycybridins A-K, Bioactive Phenolic Compounds from Glycyrrhiza glabra” (J Nat Prod, 2017).

The subject of one test is MCF7. The test is described as follows: Antiproliferative activity against human MCF7 cells at 10 uM after 24 hrs by MTS assay relative to control. The test is classed as functional. The settings on record: MCF7, 24 h.
The next test has as its system Homo sapiens. The experiment in a line: Inhibition of LPS-induced NF-kappaB (unknown origin) transactivation expressed in human SW480 cells at 10 uM administered 1 hr after LPS stimulation measured after 6 hrs by luciferase reporter gene assay relative to control. The test is classed as cell-based. (A reporter such as luciferase makes a cellular process visible.)
A further test deals with RAW264.7. The test is described as follows: Antiinflammatory activity against mouse RAW264.7 cells assessed as inhibition of LPS-induced nitric oxide production at 10 uM after 24 hrs by Griess assay relative to control. The test is classed as functional. The conditions noted are these: RAW264.7, 24 h.
The test system of another test is A549. The test is described as follows: Antiproliferative activity against human A549 cells at 10 uM after 24 hrs by MTS assay relative to control. The test is classed as functional. The conditions noted are these: A549, 24 h. (Tetrazolium dyes change colour on reduction, which living cells bring about.)
The subject of a further test is HepG2. The test is described as follows: Antiproliferative activity against human HepG2 cells at 10 uM after 24 hrs by MTS assay relative to control. The conditions noted are these: HepG2, 24 h. The test is classed as functional.
For test [1], the target named is T1, Tyrosinase (Homo sapiens) (UniProt P14679).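 Note: tyrosinase of unspecified origin acting on L-tyrosine, compound preincubated with enzyme for 15 min before adding substrate, inhibition expressed versus control.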
T1 sequence (whole entry): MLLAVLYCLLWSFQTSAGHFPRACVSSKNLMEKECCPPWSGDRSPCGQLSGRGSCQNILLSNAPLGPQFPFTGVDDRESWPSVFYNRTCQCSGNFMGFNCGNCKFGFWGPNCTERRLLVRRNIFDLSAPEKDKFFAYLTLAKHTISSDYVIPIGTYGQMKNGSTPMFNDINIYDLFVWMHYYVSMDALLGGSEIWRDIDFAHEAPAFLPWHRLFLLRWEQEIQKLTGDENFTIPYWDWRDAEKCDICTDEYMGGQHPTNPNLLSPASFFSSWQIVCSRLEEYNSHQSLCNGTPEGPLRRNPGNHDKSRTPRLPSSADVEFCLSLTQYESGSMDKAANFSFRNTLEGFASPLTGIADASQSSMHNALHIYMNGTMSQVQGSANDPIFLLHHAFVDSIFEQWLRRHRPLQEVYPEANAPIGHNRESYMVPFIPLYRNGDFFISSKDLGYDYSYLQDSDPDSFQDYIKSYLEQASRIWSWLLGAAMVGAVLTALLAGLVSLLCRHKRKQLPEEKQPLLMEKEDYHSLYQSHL
The conditions noted are these: at 10 µM.
Description: Inhibition of tyrosinase (unknown origin) using L-tyrosine as substrate at 10 uM preincubated for 15 mins followed by substrate addition relative to control

Test [2] deals with T2, Tyrosine-protein phosphatase non-receptor type 1 (Homo sapiens) (UniProt P18031).
T2 sequence (whole entry): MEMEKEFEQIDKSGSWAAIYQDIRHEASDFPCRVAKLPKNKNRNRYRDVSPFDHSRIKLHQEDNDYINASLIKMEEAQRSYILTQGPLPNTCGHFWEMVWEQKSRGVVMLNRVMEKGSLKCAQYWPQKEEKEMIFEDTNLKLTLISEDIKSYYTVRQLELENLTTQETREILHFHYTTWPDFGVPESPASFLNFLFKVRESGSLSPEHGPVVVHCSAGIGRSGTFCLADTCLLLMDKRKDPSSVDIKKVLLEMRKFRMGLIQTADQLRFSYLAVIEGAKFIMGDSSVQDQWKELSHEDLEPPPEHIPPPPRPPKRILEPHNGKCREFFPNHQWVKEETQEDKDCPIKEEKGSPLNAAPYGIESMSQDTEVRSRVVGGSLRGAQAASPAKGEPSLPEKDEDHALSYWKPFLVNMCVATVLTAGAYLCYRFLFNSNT
The conditions noted are these: at 10 µM.
Description: Inhibition of recombinant human PTP1B using pNPP as substrate at 10 uM after 30 mins relative to control

A further test concerns SW480. The test is described as follows: Antiproliferative activity against human SW480 cells at 10 uM after 24 hrs by MTS assay relative to control. The test is classed as functional. The settings on record: SW480, 24 h.

For the molecule `CC(C)=CCc1cc([C@H]2Oc3c(ccc(O)c3CC=C(C)C)C(=O)C2O)ccc1O` (some centres not stated), the inhibition (as a rule, the change of the read-out against control, counted positive when it falls) at 10 µM was found to be 33.2% in the test with MCF7; 0% with RAW264.7; 24.8% in the test on A549; 39% with HepG2; 25.2% with SW480. The inhibition in the test on Homo sapiens was found to be 37%; in test [1] it was 0.8%; in test [2] it was 43.9%.

On to `CC1(C)C=Cc2c(cc(O)c3c2OCC(c2ccc(O)cc2O)C3=O)O1` (configuration not stated), for which the inhibition at 10 µM in the test on MCF7 was determined as 12.7%; in the test on RAW264.7, 1.9%; in the test on A549, 4.3%; with HepG2, 37.6%; with SW480, 29.6%. In addition, the inhibition with Homo sapiens is 0.1%; in test [1], 35.6%; in test [2] it was 58.5%.

In the case of `O=C(/C=C/c1ccc(O)cc1)c1ccc(O)cc1O` [ISOLIQUIRITIGENIN], the inhibition at 10 µM came to 65.6% in the test on MCF7; 21% in the test on RAW264.7; 8.3% in the test with A549; 6.5% with HepG2; 29.1% with SW480. Moreover, the inhibition came to 17.1% with Homo sapiens, 15.3% in test [1] and 14.2% in test [2].

For the molecule `COc1ccc(C2(O)COc3c(ccc(O)c3CC=C(C)C)C2=O)c(O)c1` (configuration not stated), the inhibition at 10 µM in the test with MCF7 amounted to 2.8%; with RAW264.7, 5.5%; in the test with A549 it was 39.1%; in the test with HepG2, 1.6%; with SW480, 4.2%. The inhibition in the test with Homo sapiens was 13.7%; in test [1], 13.6%; in test [2] it was 10.1%.

In the case of `CC1(C)C=Cc2cc([C@@H]3CC(=O)c4ccc5c(c4O3)C=CC(C)(C)O5)ccc2O1` [XAMBIOONA], the inhibition at 10 µM in the test with MCF7 stood at 0%; in the test with RAW264.7, 6.9%; in the test on A549, 10.9%; with HepG2, 0%; with SW480, 7.9%. For the same molecule, the inhibition with Homo sapiens was found to be 0%; in test [1], 0%; in test [2], 76.9%.

With `CC1(C)C=Cc2c(ccc3cc(-c4ccc(O)cc4O)c(=O)oc23)O1` [KANZONOL W], the inhibition at 10 µM with MCF7 amounted to 47.3%; with RAW264.7, 18.9%; in the test on A549 it was 3.7%; in the test with HepG2 it was 32.7%; in the test on SW480, 0%. For the same molecule, the inhibition in the test with Homo sapiens came out at 4.5%; in test [1], 7.6%; in test [2] it was 16.2%.

Take `CC1(C)C=Cc2c(ccc(-c3oc4cc(O)ccc4c3C=O)c2O)O1`: the inhibition at 10 µM with MCF7 stood at 35.8%; in the test with RAW264.7, 36.5%; with A549, 7.9%; in the test with HepG2 it was 21%; in the test on SW480, 5.3%. Moreover, the inhibition turned out to be 36.6% in the test on Homo sapiens, 10.5% in test [1] and 9.3% in test [2].

Consider `CC(C)=CCc1cc(C[C@@H](O)C(=O)c2ccc(O)c(CC=C(C)C)c2O)ccc1O`, for which the inhibition at 10 µM with MCF7 is 82.1%; with RAW264.7, 4.1%; in the test with A549 it was 7.5%; in the test on HepG2, 75.2%; with SW480 it was 72%. Besides, the inhibition in the test with Homo sapiens was found to be 33.4%; in test [1], 0%; in test [2], 37.7%.

In the case of `CC1(C)C=Cc2c(ccc3c2OC[C@H]2c4ccc(O)cc4O[C@@H]32)O1` [SHINPTEROCARPIN], the inhibition at 10 µM with MCF7 was determined as 14.4%; with RAW264.7, 4.1%; in the test with A549, 2.2%; in the test with HepG2, 65%; with SW480, 0%. The inhibition with Homo sapiens worked out at 0%; in test [1], 11.2%; in test [2] it was 13.3%.

For `CC(C)=CCc1c(O)ccc(C(=O)/C=C/c2cc(O)c3c(c2)C=CC(C)(C)O3)c1O`, the inhibition at 10 µM came to 72% in the test with MCF7; 2% with RAW264.7; 10.9% in the test with A549; 21.7% in the test with HepG2; 34.7% with SW480. Further, the inhibition in the test with Homo sapiens was 23.1%; in test [1], 0%; in test [2], 47.1%.

Regarding `COc1ccc([C@@H]2COc3c(ccc4c3C=CC(C)(C)O4)C2)c(O)c1O`, the inhibition at 10 µM in the test on MCF7 was determined as 23.3%; with RAW264.7 it was 17.3%; in the test with A549, 30.2%; with HepG2, 49.6%; in the test with SW480 it was 12.9%. Besides, the inhibition with Homo sapiens was 22.1%; in test [1], 18.4%; in test [2] it was 22.4%.

As for `CC1(C)C=Cc2cc([C@@H]3CC(=O)c4ccc(O)cc4O3)ccc2O1` [ABYSSINONE I], the inhibition at 10 µM was 13.8% with MCF7; 0% in the test with RAW264.7; 0% with A549; 33.9% in the test with HepG2; 17.4% in the test on SW480. The results for the inhibition (in the test with Homo sapiens; in test [1]; in test [2]) were 23.1%, 2.9% and 10.1%, respectively.

Consider `CC(C)=CCc1cc([C@H]2Oc3c(ccc4c3C=CC(C)(C)O4)C(=O)[C@@H]2O)ccc1O`, for which the inhibition at 10 µM with MCF7 turned out to be 13.5%; in the test with RAW264.7, 0.3%; in the test with A549, 21.2%; in the test on HepG2, 42.9%; with SW480, 9.2%. In addition, the inhibition was found to be 40.3% in the test with Homo sapiens, 8.1% in test [1] and 10.6% in test [2].

In the case of `CC1(C)C=Cc2c(O)ccc(-c3cc4ccc(O)cc4o3)c2O1`, the inhibition at 10 µM is 9.7% in the test on MCF7; 48.9% in the test with RAW264.7; 6.5% with A549; 0% with HepG2; 6.4% in the test with SW480. The inhibition with Homo sapiens was determined as 32.2%; in test [1], 12.5%; in test [2], 1.3%.

Turning to `COc1ccc([C@@H]2COc3c(ccc4c3C=CC(C)(C)O4)C2)c(O)c1`, the inhibition at 10 µM was 5.3% in the test on MCF7; 8.5% in the test with RAW264.7; 35.9% in the test with A549; 54.2% in the test with HepG2; 16.1% with SW480. In addition, the inhibition with Homo sapiens was 4.1%; in test [1], 2.2%; in test [2], 14.6%.

Regarding `COc1ccc(-c2coc3cc(O)ccc3c2=O)cc1` [FORMONONETIN], the inhibition at 10 µM in the test on MCF7 came to 51.8%; in the test on RAW264.7, 0%; in the test with A549 it was 15.4%; in the test with HepG2, 8.2%; with SW480, 0%. Moreover, the inhibition with Homo sapiens came out at 0%; in test [1], 4.3%; in test [2], 9.9%.

On to `CC1(C)C=Cc2c(ccc([C@@H]3COc4c(ccc5c4C=CC(C)(C)O5)C3)c2O)O1` [HISPAGLABRIDIN B], for which the inhibition at 10 µM is 38.3% in the test on MCF7; 10.5% in the test with RAW264.7; 34.3% in the test with A549; 45.9% in the test with HepG2; 47.9% in the test on SW480. The inhibition in the test on Homo sapiens was determined as 0%; in test [1] it was 0%; in test [2], 42%.

As for `CC1(C)C=Cc2c(ccc3c2OCc2c-3oc3cc(O)ccc23)O1`, the inhibition at 10 µM in the test with MCF7 is 33.7%; with RAW264.7, 7.4%; in the test with A549 it was 0%; in the test with HepG2, 0%; with SW480, 1.1%. Further, the inhibition with Homo sapiens is 1.4%; in test [1] it was 26.3%; in test [2], 18.1%.

On to `CC1(C)C=Cc2c(ccc3c2OCC(c2ccc(O)cc2O)=C3)O1`, for which the inhibition at 10 µM was determined as 1.9% in the test with MCF7; 21.4% with RAW264.7; 2.1% in the test with A549; 0% with HepG2; 0% with SW480. Besides, the inhibition turned out to be 13.7% with Homo sapiens, 50.9% in test [1] and 6.1% in test [2].
